From patent publication US20070037785A1, “Novel dipeptidyl peptidase IV inhibitors used for functionally influencing different cells and treating immunological, infammatory, neuronal, and other diseases” (priority 2003, published 2007)

Biological target: dipeptidyl peptidase IV (Homo sapiens, UniProt P27487)
Assay: biochemical
Details: values marked with "*" are ID50 values; read-out: IC50DPIV, values marked with "*" = ID50

Chain of dipeptidyl peptidase IV (P27487 whole entry, species assumed): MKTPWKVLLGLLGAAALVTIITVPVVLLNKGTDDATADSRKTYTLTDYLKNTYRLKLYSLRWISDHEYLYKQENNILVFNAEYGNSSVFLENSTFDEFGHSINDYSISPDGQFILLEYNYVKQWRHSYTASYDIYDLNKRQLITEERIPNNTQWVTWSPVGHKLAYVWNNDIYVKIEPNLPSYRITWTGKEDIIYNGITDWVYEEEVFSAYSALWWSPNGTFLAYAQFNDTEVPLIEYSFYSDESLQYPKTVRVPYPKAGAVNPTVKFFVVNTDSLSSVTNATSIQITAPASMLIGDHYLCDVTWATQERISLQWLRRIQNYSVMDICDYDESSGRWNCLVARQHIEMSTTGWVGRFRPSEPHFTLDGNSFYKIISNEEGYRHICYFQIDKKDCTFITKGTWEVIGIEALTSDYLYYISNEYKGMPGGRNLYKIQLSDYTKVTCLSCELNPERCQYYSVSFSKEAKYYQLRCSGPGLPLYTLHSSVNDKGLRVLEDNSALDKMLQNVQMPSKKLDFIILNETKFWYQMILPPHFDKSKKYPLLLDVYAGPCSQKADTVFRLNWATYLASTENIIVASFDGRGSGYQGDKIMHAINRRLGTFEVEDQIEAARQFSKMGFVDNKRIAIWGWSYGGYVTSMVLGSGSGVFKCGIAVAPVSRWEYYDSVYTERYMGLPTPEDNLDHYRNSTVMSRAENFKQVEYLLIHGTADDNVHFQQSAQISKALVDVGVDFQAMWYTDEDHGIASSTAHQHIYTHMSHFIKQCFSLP

Row | IC50 [µM] | SMILES
1 | 269 | CSc1nc2sc3c(c2c2nnc(SCc4cccc(OC(C)C)c4)n12)CC(C)(C)OC3 [D3.108]
2 | 4.2 | CCC(=O)Oc1cccc(N2C(=O)C3C4C=CC(C3C2=O)C2C(=O)N(c3cccc(OC(=O)CC)c3)C(=O)C42)c1 (stereo not drawn) [D3.045]
3 | 216 | O=C1CSCC(=O)N1c1ccc(F)cc1F [D4.100]
4 | 98.4 | O=C(Oc1cccc(-n2cnnn2)c1)C1CC1 [D4.089]
5 | 166 | COc1ccc(/C=C(\NC(=O)c2ccccc2)C(=O)N/N=C/c2ccc(OC)c(COc3ccc(C(=O)OCC(C)C)cc3)c2)cc1 [D10.117]
6 | 418 | CCN(CC)c1ccc(/C=C(/NC(=O)c2ccccc2)C(=O)N/N=C/c2ccc(-c3ccc([N+](=O)[O-])cc3)o2)cc1 [D10.138]
7 | 284 | COc1ccc(NC(=O)CSc2nnc3n2-c2sc4c(c2C(=O)C3CCc2ccccc2)CC(C)(C)OC4)cc1 (stereo not drawn) [D3.111]
8 | 241 | COc1cc(/C=N/NC(=O)c2ccccc2[N+](=O)[O-])cc(OC)c1OC [D10.128]
9 | 2.9 | COc1ccc(N(C(C)C(=O)N/N=C/c2ccc(Cl)cc2Cl)S(C)(=O)=O)cc1 (stereo not drawn) [D9.001]
10 | 74.7 | CC(C)(C)c1cc2oc3c(c2c(/C=N/NC(=O)c2ccc(O)cc2O)c1O)CCCC3 [D10.097]
11 | 275 | Cc1ccccc1NC(=O)C(=O)N/N=C/c1cccc(Cl)c1 [D2.008]
12 | 363 | CCOC(=O)c1c(NC(=O)CSc2nc(=O)cc(N)n2-c2cccc(C)c2)sc2c1CCC2 [D3.116]
13 | 4.2 | CCC(=O)Oc1cccc(N2C(=O)C3C4C=CC(C3C2=O)C2C(=O)N(c3cccc(OC(=O)CC)c3)C(=O)C42)c1 (stereo not drawn) [D4.006]
14 | 218 | CCOc1cc(/C=N/NC(=O)c2ccccc2)ccc1O [D10.123]
15 | 233 | Cc1ccc(C)c(NCC(=O)N/N=C\c2cc([N+](=O)[O-])ccc2N2CCOCC2)c1 [D10.125]
16 | 402 | Nc1ccc(C(=O)NNC(=O)c2ccc(N3C(=O)c4ccc(C(=O)NNC(=O)c5ccc([N+](=O)[O-])cc5)cc4C3=O)cc2)cc1 [D3.117]
17 | 317 | COc1ccc(-n2c(=O)c3c4c(sc3n3c(SCc5ccc(Br)cc5)nnc23)COC(C)(C)C4)cc1 [D3.113]
18 | 465 | Cc1cc(NNC(=O)COc2ccc(Cl)cc2Cl)nc(NS(=O)(=O)c2ccccc2)n1 [D9.015]
19 | 656 | O=C(N/N=C/c1cccc(OC(=O)c2ccccc2Cl)c1)/C(=C\c1ccc2c(c1)OCO2)NC(=O)c1ccccc1 [D10.143]
20 | 344 | CN(C)c1ccc(C2C3C(=O)N(c4ccccc4)C(=O)C3ON2c2ccc(Cl)cc2)cc1 (stereo not drawn) [D13.007]
21 | 243 | COC(=O)c1ccc(/C=N/NC(=O)c2cc(C34CC5CC(CC(C5)C3)C4)n[nH]2)cc1 [D10.129]
22 | 112 | CC1=C(C(=O)Nc2ccccc2)C(c2ccccc2Cl)c2c(sc(C(=O)c3ccc(Cl)cc3)c2N)N1 (stereo not drawn) [D3.093]
23 | 775 | Cc1ccccc1NC(=O)C(=O)N/N=C/c1cccc(Cl)c1 [D10.144]
24 | 83.3 | CCOC(=O)CC(N)c1ccc(OC)cc1 (stereo not drawn) [D13.006]
25 | 177 | O=C(COc1c(O)cc(Br)cc1Br)N/N=C/c1ccc(O)c(O)c1 [D10.119]

Row | SMILES | IC50 [µM]
26 | O=C(NNC(=O)c1ccc([N+](=O)[O-])cc1)c1ccc(N2C(=O)c3ccc(C(=O)NNC(=O)c4ccc([N+](=O)[O-])cc4)cc3C2=O)cc1 [D10.137] | 402
27 | CC12NCC(c3ccccc3)CC1O2 (stereo not drawn) [D5.047] | 96.6

Same assay, conditions: values without "*" = IC-50; read-out: IC50DPIV

Row | IC50 [µM] | SMILES
28 | 37.4 | CCOC(=O)c1cn(-c2ccc(N3C(=O)CSCC3=O)cc2)nc1C [D6.056]
29 | 10.1 | Cc1cccc(-n2c(=O)c3c4c(sc3n3c(SC(C)C(=O)N5CCOCC5)nnc23)COC(C(C)C)C4)c1 (stereo not drawn) [D3.012]
30 | 48.2 | CC1=C(C#N)C(=O)N(CCc2ccccc2)C(=O)/C1=C/c1ccc(-c2ccc(S(N)(=O)=O)cc2)o1 [D4.057]
31 | 20.6 | Cc1cc([N+](=O)[O-])c(C)cc1-c1ccc(/C=C/c2cc(C(F)(F)F)nc(=O)[nH]2)o1 [D6.034]
32 | 16.1 | O=C(NCc1ccco1)C(=O)Nc1ccc(Br)cc1 [D6.021]
33 | 20 | CCOc1cc(/C=N/NC(=O)COc2ccc(Cl)cc2)ccc1OC(=O)c1ccc(Br)cc1 [D10.035]
34 | 26.7 | CCC(O)(CC)C(=O)NNc1ccc(C)cc1 [D14.005]
35 | 20.2 | COc1cc2c(cc1OC)CC(C)(C)N=C2 [D3.026]
36 | 49 | CCCCOC(=O)c1cc(-c2ccc(/C=C3/C(=O)N(CC(C)O)C(=O)C(C#N)=C3C)o2)ccc1Cl (stereo not drawn) [D4.059]
37 | 11.4 | O=C(COc1cccc(Br)c1)N/N=C/c1cc(O)c(O)c(Br)c1Br [D10.014]
38 | 37.4 | CCOC(=O)c1c(C)nn(-c2ccc(N3C(=O)CSCC3=O)cc2)c1C [D4.049]
39 | 27.7 | O=C1c2ccc(-c3nc4ccccc4c(=O)o3)cc2C(=O)N1c1ccc(Cc2ccc(N3C(=O)c4ccc(-c5nc6ccccc6c(=O)o5)cc4C3=O)cc2)cc1 [D4.037]
40 | 12.3 | O=C1C=C(c2cccc([N+](=O)[O-])c2)C(=O)N1c1ccc(Cl)cc1 [D4.016]
41 | 28.8 | Cc1cc2ccccc2n1CCNC(=O)c1cccs1 [D6.044]
42 | 55 | O=C(N/N=C/C=C/c1ccccc1)c1cc(C2CC2)n[nH]1 [D10.076]
43 | 27.5 | Cc1nnc(SCC(=O)OCN2C(=O)c3ccccc3C2=O)[nH]1 [D3.033]
44 | 31.3 | CCCC(=O)Oc1ccc(N(C(=O)CCC)S(=O)(=O)c2cccs2)cc1 [D9.004]
45 | 44 | Cn1c(=O)c2c(nc(NCCO)n2Cc2ccccc2Cl)n(C)c1=O [D6.063]
46 | 48.3 | Cn1c(=O)n(Cc2ccccc2)c(=O)c2c1nc(N1CCNCC1)n2Cc1ccccc1 [D5.034]
47 | 18.9 | CC(C)C1Cc2c(sc3c2c(=O)n(Cc2ccccc2)c2nnc(SCC(=O)O)n32)CO1 (stereo not drawn) [D6.037]

Row | IC50 [µM] | SMILES
48 | 110 | COc1cccc(/C=N/NC(=O)c2cc(-c3cccc([N+](=O)[O-])c3)n[nH]2)c1O [D10.108]
49 | 46.4 | CC(C)c1ccc2c(c1)[C@@H]1C=CC[C@@H]1[C@H](c1ccc(C(=O)O)cc1)N2 [D3.062]
50 | 18.9 | CCCC(=O)O/N=C(/C)c1cc2ccccc2oc1=O [D11.007]
51 | 55.2 | Cc1ccc(Cn2cccc2/C=N/NC(=S)Nc2ccc(C)c(C)c2)cc1 [D10.077]
52 | 38 | CC(N)C(CC(=O)O)c1ccccc1 (stereo not drawn) [D13.003]
53 | 84.9 | CCOc1cc(/C=N/NC(=O)c2cc(-c3ccco3)n[nH]2)ccc1O [D10.099]
54 | 115 | COC(=O)c1ccc(NC(=O)/C(=C\c2cccc([N+](=O)[O-])c2)NC(=O)c2ccc(Br)o2)cc1 [D6.108]
55 | 16.4 | O=C(N/N=C/c1ccc(-c2ccc(Cl)cc2)o1)/C(=C/c1ccc([N+](=O)[O-])cc1)NC(=O)c1ccccc1 [D10.026]
56 | 62.1 | O=C(N/N=C\c1ccc(OCc2ccccc2Cl)cc1)c1ccc2c(c1)OCO2 [D10.090]
57 | 93.3 | O=C(CNC(=O)C(c1ccccc1)c1ccccc1)N/N=C/c1ccc(OC(=O)c2cccc(F)c2)cc1 [D10.103]
58 | 40.5 | COC(=O)C1=C2SCC(=O)N2C(N)=C(C#N)C1 [D3.052]
59 | 7.5 | CC(C)(C)C(=O)Nc1ccc(C(=O)Nc2nccs2)cc1 [D6.007]
60 | 16.7 | CCOc1cc(/C=N\NC(=O)c2cnccn2)ccc1O [D10.027]
61 | 57 | Cc1cccc(C)c1OCC(=O)N/N=C/c1cc(Br)cc(Br)c1OC(=O)c1ccccc1I [D10.084]
62 | 33.3 | O=C(N/N=C/c1cccc(Oc2ccccc2)c1)c1cc(Br)cc(Br)c1O [D10.054]
63 | 13.5 | CCOC(=O)CN(Cc1ccccc1)c1ccc(N2C(=O)CCCC2=O)cc1[N+](=O)[O-] [D4.017]
64 | 34.1 | O=C1NCCCCC1Nc1ccc(N2C(=O)CCCC2=O)cc1[N+](=O)[O-] (stereo not drawn) [D4.044]
65 | 19.2 | COc1ccc(N2CCN(c3nc4c(c(=O)[nH]c(=O)n4C)n3Cc3ccccc3)CC2)cc1 [D4.024]
66 | 8.5 | O=C1CSCC(=O)N1c1cc(Cl)cc(Cl)c1 [D4.011]
67 | 30.9 | N#Cc1c(NC(=O)C(C(F)(F)F)C(F)(F)F)sc2c1CCC2 [D3.038]

Row | SMILES | IC50 [µM]
68 | Cc1ccc(C(=O)N/C(=C\c2ccco2)C(=O)N2CCOCC2)cc1C [D5.033] | 46.5
69 | CCOC(=O)c1ccc(-c2ccc(/C=C3\C(=O)N(CCO)C(=O)C(C#N)=C3C)o2)cc1 [D4.074] | 65.9
70 | CN(C)CCNc1nc2c(c(=O)n(C)c(=O)n2C)n1Cc1ccccc1Cl [D3.004] | 7.5
71 | Cc1ccc(S(=O)(=O)CNC(=S)c2ccc3ccccc3c2)cc1 [D9.002] | 14.5
72 | COC1CC2=C(CC1OC)CC(C)(C)NC2 (stereo not drawn) [D4.039] | 28.8
73 | CC1=C(C#N)C(=O)N(CC(C)O)C(=O)/C1=C/c1ccc(-c2ccc(Br)cc2)o1 (stereo not drawn) [D6.089] | 73.8
74 | CCCOC(=O)c1cc(-c2ccc(/C=C3\C(=O)N(CCCO)C(=O)C(C#N)=C3C)o2)ccc1Cl [D6.092] | 76.3
75 | CCN(CC)C(=O)C1CCCN(c2ccc([N+](=O)[O-])cc2/C=N/NC(=O)c2cccc([N+](=O)[O-])c2)C1 (stereo not drawn) [D5.036] | 54
76 | O=C(N/N=C/c1cc(Br)c(O)c(Br)c1O)/C(=C\c1ccc2c(c1)OCO2)NC(=O)c1ccccc1 [D3.081] | 60
77 | CCOP(=O)(CC(=O)N1CCN(C(=O)Nc2cccc(Br)c2)C1C(=O)NCc1cccc(CN)c1)OCC (stereo not drawn) [D9.008] | 46.3
78 | O=C(N/N=C/c1cc(Br)c(O)c(Br)c1O)/C(=C\c1ccc2c(c1)OCO2)NC(=O)c1ccccc1 [D10.089] | 60
79 | N#Cc1c(NC(=O)C(C(F)(F)F)C(F)(F)F)sc2c1CCCC2 [D3.049] | 39.5
80 | CC1CCc2c(sc(NC(=O)C(C(F)(F)F)C(F)(F)F)c2C#N)C1 (stereo not drawn) [D6.083] | 59.8
81 | CN(/N=C/c1sc(=O)[nH]c1Cl)c1ccccc1 [D10.057] | 32.4
82 | CC1CCc2c(sc(NC(=O)C(C(F)(F)F)C(F)(F)F)c2C#N)C1 (stereo not drawn) [D3.080] | 59.8
83 | Cc1[nH]c2ccccc2c1C(c1cc(Cl)ccc1O)N1CCOCC1 (stereo not drawn) [D5.007] | 12.1
84 | Cc1ccc(/C=N/NC(=O)c2cccc(I)c2)o1 [D10.085] | 57.7
85 | COc1cc2c(cc1OC)CC(C)(C)NC2 [D3.005] | 6
86 | O=C1c2ccc(Oc3ccc([N+](=O)[O-])cc3[N+](=O)[O-])cc2C(=O)N1c1ccccc1 [D4.028] | 20.6
87 | CCOC(=O)c1c(C)oc2c1c1c(c3ccccc32)OCN(C2CCS(=O)(=O)C2)C1 (stereo not drawn) [D6.054] | 34.2
